Series [1] has as its system methicillin resistant Staph. aureus (MRSA). Type of series: cell-based, Staphylococcus aureus. Particulars: for MIC: MH medium, 37° C., 24 h; for MIC GM, MRSA: geometric mean of MIC from 8 different isolates of MRSA. As to the method: (§1) MICs were determined by a standard microtiter dilution method in Mueller Hinton (MH) medium. Briefly, cells were grown overnight at 37° C. in MH broth and were diluted in the same medium. Serial dilutions of the peptides were added to the microtiter plates in a volume of 50 μl, followed by the addition of 50 μl of bacteria to give a final inoculum of 5×10^5 colony-forming units (CFU)/mL. The plates were incubated at 37° C. for 24 h, and the MICs were determined as the lowest peptide concentration that inhibited growth.
(§2) Various peptides of the invention were tested for antimicrobial activity as described in Example 1. The antimicrobial activity of these peptides was similarly tested against Gram-positive organisms, including Staphylococcus aureus.

Series [2] relates to methicillin sensitive Staph. aureus (MSSA). The class given is cell-based, Staphylococcus aureus. The note with it: for MIC: MH medium, 37° C., 24 h; for MIC GM, MSSA: geometric mean of MIC from 12 different isolates of MSSA. Here is the method:
as §1, §2

The subject of series [3] is human red blood cells. The note with it: for Fold improvement in HC50: compared to D-Piscidin 1 or D-Dermaseptin S4, 18 hours.
Method: Peptide samples (concentrations determined by amino acid analysis) were added to 1% human erythrocytes in phosphate-buffered saline (100 mM NaCl, 80 mM Na2HPO4, 20 mM NaH2PO4, pH 7.4) and the reaction mixtures were incubated at 37° C. for 18 h in microtiter plates. Two-fold serial dilutions of the peptide samples were carried out. This determination was made by withdrawing aliquots from the hemolysis assays and removing unlysed erythrocytes by centrifugation (800×g). Hemoglobin release was determined spectrophotometrically at 570 nm. The control for 100% hemolysis was a sample of erythrocytes treated with water or 0.1% Triton-X 100. The control for no release of hemoglobin was a sample of 1% erythrocytes without any peptide added. […] The hemolytic activity was determined as the peptide concentration that caused 50% hemolysis of erythrocytes after 18 h (HC50). HC50 as determined from a plot of percent lysis versus peptide concentration (μM). The inventors also determined the hemolytic activity after 1 hour at 37° C.

≈ marks a conversion by molar mass, not a printed value. Where two headings read alike, the source gives them in different places.

`CSCC[C@@H](NC(=O)[C@@H](Cc1c[nH]c2ccccc12)NC(=O)[C@@H](CC(C)C)NC(=O)[C@@H](C)N)C(=O)N[C@@H](C(=O)N[C@H](CC(C)C)C(=O)N[C@H](CC(C)C)C(=O)N[C@H](CCCCN)C(=O)N[C@H](CCCCN)C(=O)N[C@@H](C(=O)N[C@H](CC(C)C)C(=O)N[C@H](CCCCN)C(=O)N[C@H](C)C(=O)N[C@H](C)C(=O)N[C@H](C)C(=O)N[C@H](CCCCN)C(=O)N[C@H](C)C(=O)N[C@H](CC(C)C)C(=O)N[C@H](CC(N)=O)C(=O)N[C@H](C)C(=O)N[C@@H](C(=O)N[C@H](CC(C)C)C(=O)N[C@@H](C(=O)NCC(=O)N[C@H](C)C(=O)N[C@H](CC(N)=O)C(=O)N[C@H](C)C(N)=O)C(C)C)C(C)C)C(C)C)[C@H](C)O` [D-Dermaseptin S4, reference compound]: the minimum inhibitory concentration (MIC) (usually the least concentration at which growth counts as inhibited) amounted to 5.6 µM (≈ 15.6 µg/mL) in series [1] (MRSA strain M21742 (nose)); 2.8 µM (≈ 7.78 µg/mL) in series [1] (MRSA strain M21756 (nose)); 5.6 µM (≈ 15.6 µg/mL) in series [1] (MRSA strain M22111 (ear)); 5.6 µM (≈ 15.6 µg/mL) in series [1] (MRSA strain M22130); 5.6 µM (≈ 15.6 µg/mL) in series [1] (MRSA strain M22224 (leg)); 5.6 µM (≈ 15.6 µg/mL) in series [1] (MRSA strain M22354). Besides, the minimal inhibitory concentration (MIC) in series [1] (MRSA strain M22360 (labia)) stood at 5.6 µM (≈ 15.6 µg/mL); in series [1] (MRSA strain M22424 (arm)), 11.3 µM (≈ 31.4 µg/mL); in series [2] (MSSA strain BL7429), 2.8 µM (≈ 7.78 µg/mL); in series [2] (MSSA strain M21913), 5.6 µM (≈ 15.6 µg/mL); in series [2] (MSSA strain M21935), 5.6 µM (≈ 15.6 µg/mL); in series [2] (MSSA strain M21991), 5.6 µM (≈ 15.6 µg/mL). Besides, the MIC in series [2] (MSSA strain M22075) is 2.8 µM (≈ 7.78 µg/mL); in series [2] (MSSA strain M22097), 5.6 µM (≈ 15.6 µg/mL); in series [2] (MSSA strain M22111), 5.6 µM (≈ 15.6 µg/mL); in series [2] (MSSA strain M22274), 11.3 µM (≈ 31.4 µg/mL); in series [2] (MSSA strain M22287) it was 5.6 µM (≈ 15.6 µg/mL); in series [2] (MSSA strain M22300) it was 5.6 µM (≈ 15.6 µg/mL). For the same molecule, the minimum inhibitory concentration (MIC) in series [2] (MSSA strain M22312) and in series [2] (MSSA strain M22315) was 11.3 µM (≈ 31.4 µg/mL) in each case. Further, the “MIC GM, MRSA” value in series [1] was found to be 5.6 µM (≈ 15.6 µg/mL). Moreover, the “MIC GM, MSSA” value in series [2] stood at 6.0 µM (≈ 16.7 µg/mL). In addition, the “Fold improvement in HC50” value in series [3] turned out to be 1.0 fold.
In the case of `CC[C@@H](C)[C@@H](NC(=O)[C@H]1CCCN1C(=O)[C@@H](CCCNC(=N)N)NC(=O)[C@@H](Cc1ccccc1)NC(=O)[C@H](NC(=O)[C@@H](Cc1c[nH]cn1)NC(=O)[C@@H](Cc1c[nH]cn1)NC(=O)[C@@H](Cc1ccccc1)NC(=O)[C@H](N)Cc1ccccc1)[C@H](C)CC)C(=O)N[C@@H](C(=O)N[C@H](Cc1c[nH]cn1)C(=O)N[C@@H](C(=O)NCC(=O)N[C@H](CCCCN)C(=O)N[C@@H](C(=O)N[C@@H](C(=O)N[C@H](Cc1c[nH]cn1)C(=O)N[C@H](CCCNC(=N)N)C(=O)N[C@H](CC(C)C)C(=O)N[C@@H](C(=O)N[C@@H](C(=O)NCC(N)=O)[C@H](C)O)C(C)C)[C@H](C)CC)[C@H](C)O)C(C)C)C(C)C` [D-Piscidin 1 G8P], in series [3] (HC50 1 hour vs 18 hours at 37° C.), the “fold increase in hemolytic activity from 1 to 18 hours” value amounted to 7 fold.
Regarding `CC[C@@H](C)[C@@H](NC(=O)CNC(=O)[C@@H](CCCNC(=N)N)NC(=O)[C@@H](Cc1ccccc1)NC(=O)[C@H](NC(=O)[C@@H](Cc1c[nH]cn1)NC(=O)[C@@H](Cc1c[nH]cn1)NC(=O)[C@@H](Cc1ccccc1)NC(=O)[C@H](N)Cc1ccccc1)[C@H](C)CC)C(=O)N[C@@H](C(=O)N[C@H](Cc1c[nH]cn1)C(=O)N[C@@H](C(=O)N[C@H](CCCCN)C(=O)N[C@H](CCCCN)C(=O)N[C@@H](C(=O)N[C@@H](C(=O)N[C@H](Cc1c[nH]cn1)C(=O)N[C@H](CCCNC(=N)N)C(=O)N[C@H](CC(C)C)C(=O)N[C@@H](C(=O)N[C@@H](C(=O)NCC(N)=O)[C@H](C)O)C(C)C)[C@H](C)CC)[C@H](C)O)C(C)C)C(C)C` [D-Piscidin 1 G13K], the “Fold improvement in HC50” value in series [3] is 3.9 fold.
Turning to `CC[C@@H](C)[C@@H](NC(=O)[C@@H](Cc1c[nH]cn1)NC(=O)[C@@H](Cc1c[nH]cn1)NC(=O)[C@@H](Cc1ccccc1)NC(=O)[C@H](N)Cc1ccccc1)C(=O)N[C@H](Cc1ccccc1)C(=O)N[C@H](CCCNC(=N)N)C(=O)NCC(=O)N[C@H](CCCCN)C(=O)N[C@@H](C(=O)N[C@H](Cc1c[nH]cn1)C(=O)N[C@@H](C(=O)NCC(=O)N[C@H](CCCCN)C(=O)N[C@@H](C(=O)N[C@@H](C(=O)N[C@H](Cc1c[nH]cn1)C(=O)N[C@H](CCCNC(=N)N)C(=O)N[C@H](CC(C)C)C(=O)N[C@@H](C(=O)N[C@@H](C(=O)NCC(N)=O)[C@H](C)O)C(C)C)[C@H](C)CC)[C@H](C)O)C(C)C)C(C)C` [D-Piscidin 1 I9K], the MIC amounted to 96.7 µM (≈ 250 µg/mL) in series [1] (MRSA strain M21742 (nose)); 387 µM (≈ 1000 µg/mL) in series [1] (MRSA strain M21756 (nose)); 96.7 µM (≈ 250 µg/mL) in series [1] (MRSA strain M22111 (ear)); 12.1 µM (≈ 31.3 µg/mL) in series [1] (MRSA strain M22130); 96.7 µM (≈ 250 µg/mL) in series [1] (MRSA strain M22224 (leg)); 773 µM (≈ 2000 µg/mL) in series [1] (MRSA strain M22354). Moreover, the MIC in series [1] (MRSA strain M22360 (labia)) came out at 3.0 µM (≈ 7.76 µg/mL); in series [1] (MRSA strain M22424 (arm)) it was 773 µM (≈ 2000 µg/mL); in series [2] (MSSA strain BL7429) it was 193 µM (≈ 499 µg/mL); in series [2] (MSSA strain M21913), 193 µM (≈ 499 µg/mL); in series [2] (MSSA strain M21935), 387 µM (≈ 1000 µg/mL); in series [2] (MSSA strain M21991), 193 µM (≈ 499 µg/mL). The MIC is 387 µM (≈ 1000 µg/mL) in series [2] (MSSA strain M22075); 193 µM (≈ 499 µg/mL) in series [2] (MSSA strain M22097); 3.0 µM (≈ 7.76 µg/mL) in series [2] (MSSA strain M22111); 773 µM (≈ 2000 µg/mL) in series [2] (MSSA strain M22274); 773 µM (≈ 2000 µg/mL) in series [2] (MSSA strain M22287); 773 µM (≈ 2000 µg/mL) in series [2] (MSSA strain M22300). In addition, the minimal inhibitory concentration (MIC) in series [2] (MSSA strain M22312) and in series [2] (MSSA strain M22315) was 773 µM (≈ 2000 µg/mL) each time. The “MIC GM, MRSA” value in series [1] was determined as 96.7 µM (≈ 250 µg/mL). The “MIC GM, MSSA” value in series [2] was found to be 273 µM (≈ 706 µg/mL). Moreover, the “% hemolysis” value in series [3] (1000 μg/mL (387 μM) for 1 hour) is 32%. In addition, the “activity against human red blood cells” value in series [3] (18 hours incubation) was “inactive”. Also, in series [3], the “Fold improvement in HC50” value is listed as 54 fold.
On to `CC[C@@H](C)[C@@H](NC(=O)CNC(=O)[C@@H](CCCNC(=N)N)NC(=O)[C@@H](Cc1ccccc1)NC(=O)[C@H](NC(=O)[C@@H](Cc1c[nH]cn1)NC(=O)[C@@H](Cc1c[nH]cn1)NC(=O)[C@@H](Cc1ccccc1)NC(=O)[C@H](N)Cc1ccccc1)[C@H](C)CC)C(=O)N[C@@H](C(=O)N[C@H](Cc1c[nH]cn1)C(=O)N[C@H](CCCCN)C(=O)NCC(=O)N[C@H](CCCCN)C(=O)N[C@@H](C(=O)N[C@@H](C(=O)N[C@H](Cc1c[nH]cn1)C(=O)N[C@H](CCCNC(=N)N)C(=O)N[C@H](CC(C)C)C(=O)N[C@@H](C(=O)N[C@@H](C(=O)NCC(N)=O)[C@H](C)O)C(C)C)[C@H](C)CC)[C@H](C)O)C(C)C` [D-Piscidin 1 V12K], for which the MIC is 385 µM (≈ 1000 µg/mL) in series [1] (MRSA strain M21742 (nose)); 385 µM (≈ 1000 µg/mL) in series [1] (MRSA strain M21756 (nose)); 96.1 µM (≈ 250 µg/mL) in series [1] (MRSA strain M22111 (ear)); 96.1 µM (≈ 250 µg/mL) in series [1] (MRSA strain M22130); 96.1 µM (≈ 250 µg/mL) in series [1] (MRSA strain M22224 (leg)); 96.1 µM (≈ 250 µg/mL) in series [1] (MRSA strain M22354). Besides, the MIC in series [1] (MRSA strain M22360 (labia)) is 3.0 µM (≈ 7.8 µg/mL); in series [1] (MRSA strain M22424 (arm)), 769 µM (≈ 2000 µg/mL); in series [2] (MSSA strain BL7429), 385 µM (≈ 1000 µg/mL); in series [2] (MSSA strain M21913) it was 769 µM (≈ 2000 µg/mL); in series [2] (MSSA strain M21935), 192 µM (≈ 499 µg/mL); in series [2] (MSSA strain M21991), 769 µM (≈ 2000 µg/mL). Also, the MIC was determined as 385 µM (≈ 1000 µg/mL) in series [2] (MSSA strain M22075); 385 µM (≈ 1000 µg/mL) in series [2] (MSSA strain M22097); 6.0 µM (≈ 15.6 µg/mL) in series [2] (MSSA strain M22111); 769 µM (≈ 2000 µg/mL) in series [2] (MSSA strain M22274); 192 µM (≈ 499 µg/mL) in series [2] (MSSA strain M22287); 24.0 µM (≈ 62.4 µg/mL) in series [2] (MSSA strain M22300). Further, the MIC came out at 769 µM (≈ 2000 µg/mL) in series [2] (MSSA strain M22312) and 192 µM (≈ 499 µg/mL) in series [2] (MSSA strain M22315). In addition, the “MIC GM, MRSA” value in series [1] was found to be 114 µM (≈ 296 µg/mL). Further, the “MIC GM, MSSA” value in series [2] amounted to 229 µM (≈ 595 µg/mL). Besides, the “Fold improvement in HC50” value in series [3] amounted to 19 fold.

Source of the values: patent US20190202877A1, “DERMASEPTIN-TYPE AND PISCIDIN-TYPE ANTIMICROBIAL PEPTIDES” (THE REGENTS OF THE UNIVERSITY OF COLORADO, a body corporate, priority 2014, published 2019).
